How the values were obtained:
[1] = target: B-Raf V600E (Homo sapiens, UniProt P15056, V600E); test: Kinase activity assay, B-Raf V600E; type: biochemical; conditions: read-out: activity toward kinase B-Raf V600E, IC50
[2] = target: Kdr (Homo sapiens, UniProt P35968); test: Kinase activity assay, Kdr
[3] = target: Kit (Homo sapiens, UniProt P10721); test: Kinase activity assay, Kit
[4] = target: C-Raf (Homo sapiens, UniProt P04049); test: Kinase activity assay, C-Raf
[5] = target: B-Raf (Homo sapiens, UniProt P15056); test: Kinase activity assay, B-Raf; type: biochemical; conditions: read-out: activity toward kinase B-Raf, IC50
[6] = target: Src (Homo sapiens, UniProt P12931); test: Kinase activity assay, Src
Chain of Src (P12931 whole entry): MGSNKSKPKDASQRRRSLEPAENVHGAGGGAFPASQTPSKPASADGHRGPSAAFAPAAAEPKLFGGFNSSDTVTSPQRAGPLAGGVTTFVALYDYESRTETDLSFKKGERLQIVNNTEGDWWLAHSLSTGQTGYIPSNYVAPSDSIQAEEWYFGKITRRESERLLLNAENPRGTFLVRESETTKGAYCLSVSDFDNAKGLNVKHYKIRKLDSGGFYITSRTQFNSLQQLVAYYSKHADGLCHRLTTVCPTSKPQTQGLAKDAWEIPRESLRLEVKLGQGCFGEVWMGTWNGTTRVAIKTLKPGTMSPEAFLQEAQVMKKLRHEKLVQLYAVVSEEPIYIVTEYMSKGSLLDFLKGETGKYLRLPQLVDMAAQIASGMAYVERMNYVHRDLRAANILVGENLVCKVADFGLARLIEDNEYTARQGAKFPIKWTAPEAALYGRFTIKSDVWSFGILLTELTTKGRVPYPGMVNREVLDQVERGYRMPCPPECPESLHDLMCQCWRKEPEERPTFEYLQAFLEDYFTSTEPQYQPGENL

Chain of C-Raf (P04049 whole entry): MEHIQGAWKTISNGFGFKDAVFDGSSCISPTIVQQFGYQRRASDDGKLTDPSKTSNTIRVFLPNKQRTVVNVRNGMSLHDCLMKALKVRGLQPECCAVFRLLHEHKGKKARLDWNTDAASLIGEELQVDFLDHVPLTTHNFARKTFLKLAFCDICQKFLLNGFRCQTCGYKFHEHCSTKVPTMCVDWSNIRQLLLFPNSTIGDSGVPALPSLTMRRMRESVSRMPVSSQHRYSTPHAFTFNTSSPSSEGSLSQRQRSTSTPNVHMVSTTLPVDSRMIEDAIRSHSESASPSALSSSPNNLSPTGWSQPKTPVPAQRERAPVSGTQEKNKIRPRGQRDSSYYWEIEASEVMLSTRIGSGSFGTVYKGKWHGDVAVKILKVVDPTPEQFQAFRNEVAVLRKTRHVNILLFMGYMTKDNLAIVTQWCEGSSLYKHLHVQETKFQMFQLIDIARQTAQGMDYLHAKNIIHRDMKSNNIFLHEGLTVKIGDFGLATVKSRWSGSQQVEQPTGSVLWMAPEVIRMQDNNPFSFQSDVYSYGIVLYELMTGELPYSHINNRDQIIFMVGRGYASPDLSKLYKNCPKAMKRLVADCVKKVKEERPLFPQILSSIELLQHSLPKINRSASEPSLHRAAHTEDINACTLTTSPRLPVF
Chain of Kit (P10721 26-976): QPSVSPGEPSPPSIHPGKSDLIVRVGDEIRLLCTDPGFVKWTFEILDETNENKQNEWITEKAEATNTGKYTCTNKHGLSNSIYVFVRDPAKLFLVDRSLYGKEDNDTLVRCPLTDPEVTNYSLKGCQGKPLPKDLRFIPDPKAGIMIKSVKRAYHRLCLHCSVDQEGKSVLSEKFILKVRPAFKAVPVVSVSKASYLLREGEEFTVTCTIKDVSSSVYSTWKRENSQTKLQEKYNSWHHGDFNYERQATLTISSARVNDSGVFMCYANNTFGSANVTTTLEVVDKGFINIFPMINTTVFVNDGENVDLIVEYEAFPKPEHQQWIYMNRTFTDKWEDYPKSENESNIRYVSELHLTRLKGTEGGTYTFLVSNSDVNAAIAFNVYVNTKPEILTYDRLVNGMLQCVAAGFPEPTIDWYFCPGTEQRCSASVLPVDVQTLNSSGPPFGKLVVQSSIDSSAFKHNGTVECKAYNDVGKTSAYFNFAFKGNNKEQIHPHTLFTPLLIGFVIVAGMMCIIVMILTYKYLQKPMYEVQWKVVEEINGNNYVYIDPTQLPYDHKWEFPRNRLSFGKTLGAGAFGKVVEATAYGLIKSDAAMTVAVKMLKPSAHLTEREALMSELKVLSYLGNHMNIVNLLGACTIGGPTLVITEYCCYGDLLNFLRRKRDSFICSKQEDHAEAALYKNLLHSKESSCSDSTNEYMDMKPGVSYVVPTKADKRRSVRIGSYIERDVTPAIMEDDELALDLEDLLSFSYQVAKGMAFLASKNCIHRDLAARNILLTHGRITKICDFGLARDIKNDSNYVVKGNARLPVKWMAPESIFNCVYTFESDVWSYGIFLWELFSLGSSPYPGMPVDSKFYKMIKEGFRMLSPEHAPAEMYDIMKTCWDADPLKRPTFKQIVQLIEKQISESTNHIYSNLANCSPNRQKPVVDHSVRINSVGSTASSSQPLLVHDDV
Chain of B-Raf V600E (P15056 whole entry V600E): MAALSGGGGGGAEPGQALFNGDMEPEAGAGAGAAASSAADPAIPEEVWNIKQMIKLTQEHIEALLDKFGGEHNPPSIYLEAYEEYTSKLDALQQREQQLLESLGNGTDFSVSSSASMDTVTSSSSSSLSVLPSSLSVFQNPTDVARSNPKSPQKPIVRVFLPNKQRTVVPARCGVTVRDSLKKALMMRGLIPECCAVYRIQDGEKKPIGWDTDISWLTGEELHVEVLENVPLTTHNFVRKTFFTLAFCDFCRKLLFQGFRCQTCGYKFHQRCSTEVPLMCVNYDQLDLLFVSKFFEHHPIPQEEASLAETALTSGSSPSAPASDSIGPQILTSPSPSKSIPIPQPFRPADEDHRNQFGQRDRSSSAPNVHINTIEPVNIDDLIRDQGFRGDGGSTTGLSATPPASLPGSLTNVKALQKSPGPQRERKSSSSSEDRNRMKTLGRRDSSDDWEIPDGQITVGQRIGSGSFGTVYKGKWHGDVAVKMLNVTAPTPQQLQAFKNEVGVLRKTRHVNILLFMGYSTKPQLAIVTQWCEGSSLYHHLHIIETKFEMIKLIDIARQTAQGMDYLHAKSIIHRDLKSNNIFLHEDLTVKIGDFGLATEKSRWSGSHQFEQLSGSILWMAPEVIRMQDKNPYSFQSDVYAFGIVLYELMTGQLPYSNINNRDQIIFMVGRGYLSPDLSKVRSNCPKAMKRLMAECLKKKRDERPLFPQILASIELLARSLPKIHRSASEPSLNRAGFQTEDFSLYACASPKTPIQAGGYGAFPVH
Chain of Kdr (P35968 20-1356): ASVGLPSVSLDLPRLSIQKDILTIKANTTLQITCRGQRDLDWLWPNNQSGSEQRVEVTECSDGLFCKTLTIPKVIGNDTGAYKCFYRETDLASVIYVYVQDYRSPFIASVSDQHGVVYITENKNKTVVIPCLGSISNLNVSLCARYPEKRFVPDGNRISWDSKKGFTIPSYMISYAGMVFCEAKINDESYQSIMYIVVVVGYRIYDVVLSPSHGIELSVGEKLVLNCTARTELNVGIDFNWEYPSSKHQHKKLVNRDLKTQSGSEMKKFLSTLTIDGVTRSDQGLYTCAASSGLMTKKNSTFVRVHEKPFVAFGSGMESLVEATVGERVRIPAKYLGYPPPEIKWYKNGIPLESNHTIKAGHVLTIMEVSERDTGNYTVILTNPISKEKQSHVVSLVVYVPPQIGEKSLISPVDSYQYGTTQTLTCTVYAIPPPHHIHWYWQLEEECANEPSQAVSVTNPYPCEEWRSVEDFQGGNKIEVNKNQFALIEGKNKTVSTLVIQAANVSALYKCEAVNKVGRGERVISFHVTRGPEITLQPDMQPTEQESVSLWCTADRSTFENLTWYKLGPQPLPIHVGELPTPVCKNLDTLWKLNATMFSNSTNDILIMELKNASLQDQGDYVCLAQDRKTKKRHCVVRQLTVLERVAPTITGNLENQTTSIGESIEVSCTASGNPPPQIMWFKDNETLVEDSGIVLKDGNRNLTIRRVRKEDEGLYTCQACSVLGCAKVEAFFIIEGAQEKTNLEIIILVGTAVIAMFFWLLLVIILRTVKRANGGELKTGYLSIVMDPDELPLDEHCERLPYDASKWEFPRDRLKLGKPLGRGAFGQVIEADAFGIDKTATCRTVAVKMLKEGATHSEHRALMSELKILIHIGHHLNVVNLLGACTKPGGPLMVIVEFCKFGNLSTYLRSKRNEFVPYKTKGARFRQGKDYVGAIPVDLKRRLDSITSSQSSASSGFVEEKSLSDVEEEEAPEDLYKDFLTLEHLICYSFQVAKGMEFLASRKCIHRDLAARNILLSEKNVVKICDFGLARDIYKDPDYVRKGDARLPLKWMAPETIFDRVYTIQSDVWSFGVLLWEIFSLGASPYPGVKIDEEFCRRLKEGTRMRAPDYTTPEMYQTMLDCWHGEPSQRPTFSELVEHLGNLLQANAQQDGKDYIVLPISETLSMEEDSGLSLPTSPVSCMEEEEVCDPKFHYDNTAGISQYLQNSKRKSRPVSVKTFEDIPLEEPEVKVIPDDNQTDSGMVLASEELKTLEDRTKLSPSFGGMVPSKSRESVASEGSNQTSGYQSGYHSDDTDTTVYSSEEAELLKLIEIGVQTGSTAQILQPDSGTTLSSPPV
Chain of B-Raf (P15056 whole entry): as the sequence (P15056 whole entry V600E) above, with E600V counted along it

SMILES | IC50 [1] [µM] | IC50 [2] [µM] | IC50 [3] [µM] | IC50 [4] [µM] | IC50 [5] [µM] | IC50 [6] [µM]
CCS(=O)(=O)Nc1ccc(F)c(C(=O)c2c[nH]c3ncc(C#N)cc23)c1F [P-2281, Ethanesulfonic acid [3-(5-cyano-1H-pyrrolo[2,3-b]pyridine-3-carbonyl)-2,4-difluoro-phenyl]-amide] | ≤ 10 | ≤ 10 |  | ≤ 10 | ≤ 10 | 
CCCS(=O)(=O)Nc1cccc(C(=O)c2c[nH]c3nccc(C#N)c23)c1F [P-2409, Propane-1-sulfonic acid [3-(4-cyano-1H-pyrrolo[2,3-b]pyridine-3-carbonyl)-2-fluoro-phenyl]-amide] | ≤ 10 | ≤ 10 |  | ≤ 10 | ≤ 10 | 
O=C(c1c(F)ccc(NS(=O)(=O)c2ccc(C(F)(F)F)nc2)c1F)c1c[nH]c2ncc(Cl)cc12 [P-2481, 6-Trifluoromethyl-pyridine-3-sulfonic acid [3-(5-chloro-1H-pyrrolo[2,3-b]pyridine-3-carbonyl)-2,4-difluoro-phenyl]-amide] |  | ≤ 10 |  | ≤ 10 | ≤ 10 | ≤ 10
CCCS(=O)(=O)Nc1ccc(F)c(C(=O)c2c[nH]c3ncc(/C=C/C(=O)OC)cc23)c1F [P-2225, (E)-3-{3-[2,6-Difluoro-3-(propane-1-sulfonylamino)-benzoyl]-1H-pyrrolo[2,3-b]pyridin-5-yl}-acrylic acid methyl ester] | ≤ 10 | ≤ 10 |  | ≤ 10 | ≤ 10 | ≤ 10
N#Cc1cnc2[nH]cc(C(=O)c3c(F)ccc(NS(=O)(=O)Cc4cccnc4)c3F)c2c1 [P-2094, N-[3-(5-Cyano-1H-pyrrolo[2,3-b]pyridine-3-carbonyl)-2,4-difluoro-phenyl]-C-pyridin-3-yl-methanesulfonamide] | ≤ 10 | ≤ 10 | ≤ 10 |  |  | 
Cc1cnc2[nH]cc(C(=O)c3cccc(NS(=O)(=O)c4ccc(C(F)(F)F)cc4)c3F)c2c1 [P-2059, N-[2-Fluoro-3-(5-methyl-1H-pyrrolo[2,3-b]pyridine-3-carbonyl)-phenyl]-4-trifluoromethyl-benzenesulfonamide] | ≤ 10 | ≤ 10 |  | ≤ 10 | ≤ 10 | ≤ 10
COc1ccc(S(=O)(=O)Nc2ccc(F)c(C(=O)c3c[nH]c4ncc(C#N)cc34)c2F)cn1 [P-2085, 6-Methoxy-pyridine-3-sulfonic acid [3-(5-cyano-1H-pyrrolo[2,3-b]pyridine-3-carbonyl)-2,4-difluoro-phenyl]-amide] | ≤ 10 |  |  | ≤ 10 | ≤ 10 | 
COc1ccnc2[nH]cc(C(=O)c3c(F)ccc(NS(=O)(=O)CC(F)(F)F)c3F)c12 [P-2340, 2,2,2-Trifluoro-ethanesulfonic acid [2,4-difluoro-3-(4-methoxy-1H-pyrrolo[2,3-b]pyridine-3-carbonyl)-phenyl]-amide] | ≤ 10 |  |  | ≤ 10 | ≤ 10 | ≤ 10
O=C(c1cccc(NS(=O)(=O)c2ccc(C(F)(F)F)cc2)c1)c1c[nH]c2ncc(Cl)cc12 [P-2126, N-[3-(5-Chloro-1H-pyrrolo[2,3-b]pyridine-3-carbonyl)-phenyl]-4-trifluoromethyl-benzenesulfonamide] |  | ≤ 10 | ≤ 10 |  | ≤ 10 | 
Cn1cc(S(=O)(=O)Nc2cccc(C(=O)c3c[nH]c4ncc(C#N)cc34)c2F)cn1 [P-2090, 1-Methyl-1H-pyrazole-4-sulfonic acid [3-(5-cyano-1H-pyrrolo[2,3-b]pyridine-3-carbonyl)-2-fluoro-phenyl]-amide] | ≤ 10 |  |  | ≤ 10 | ≤ 10 | 
O=C(c1cc(NS(=O)(=O)c2ccc(OC(F)(F)F)cc2)ccc1F)c1c[nH]c2ncc(Cl)cc12 [P-2109, N-[3-(5-Chloro-1H-pyrrolo[2,3-b]pyridine-3-carbonyl)-4-fluoro-phenyl]-4-trifluoromethoxy-benzenesulfonamide] |  | ≤ 10 | ≤ 10 |  | ≤ 10 | 
Cn1cc(S(=O)(=O)Nc2ccc(F)c(C(=O)c3c[nH]c4ncc(C#N)cc34)c2F)cn1 [P-2084, 1-Methyl-1H-pyrazole-4-sulfonic acid [3-(5-cyano-1H-pyrrolo[2,3-b]pyridine-3-carbonyl)-2,4-difluoro-phenyl]-amide] | ≤ 10 |  |  | ≤ 10 | ≤ 10 | 
O=C(c1cccc(NS(=O)(=O)c2ccc(C(F)(F)F)cc2)c1F)c1c[nH]c2ncc(Cl)cc12 [P-2058, N-[3-(5-Chloro-1H-pyrrolo[2,3-b]pyridine-3-carbonyl)-2-fluoro-phenyl]-4-trifluoromethyl-benzenesulfonamide] | ≤ 10 | ≤ 10 | ≤ 10 | ≤ 10 | ≤ 10 | 
CCCS(=O)(=O)Nc1ccc(F)c(C(=O)c2c[nH]c3ncc(-c4c(-c5ccccc5)noc4C)cc23)c1F [P-2191, Propane-1-sulfonic acid {2,4-difluoro-3-[5-(5-methyl-3-phenyl-isoxazol-4-yl)-1H-pyrrolo[2,3-b]pyridine-3-carbonyl]-phenyl}-amide] | ≤ 10 | ≤ 10 |  |  | ≤ 10 | ≤ 10
N#Cc1cnc2[nH]cc(C(=O)c3cccc(NS(=O)(=O)c4ccc(F)cc4)c3F)c2c1 [P-2050, N-[3-(5-Cyano-1H-pyrrolo[2,3-b]pyridine-3-carbonyl)-2-fluoro-phenyl]-4-fluoro-benzenesulfonamide] | ≤ 10 |  |  | ≤ 10 | ≤ 10 | 
CCCS(=O)(=O)Nc1ccc(F)c(C(=O)c2c[nH]c3ncc(C(=O)N(C)C)cc23)c1F [P-2237, 3-[2,6-Difluoro-3-(propane-1-sulfonylamino)-benzoyl]-1H-pyrrolo[2,3-b]pyridine-5-carboxylic acid dimethyl amide] |  | ≤ 10 |  |  | ≤ 10 | ≤ 10
CCCS(=O)(=O)Nc1ccc(F)c(C(=O)c2c[nH]c3ncc(-c4ccc(Cl)nc4)cc23)c1F [P-2154, Propane-1-sulfonic acid {3-[5-(6-chloro-pyridin-3-yl)-1H-pyrrolo[2,3-b]pyridine-3-carbonyl]-2,4-difluoro-phenyl}-amide] | ≤ 10 | ≤ 10 |  | ≤ 10 | ≤ 10 | ≤ 10

Next, values leading:

IC50 [1] [µM] | IC50 [2] [µM] | IC50 [3] [µM] | IC50 [4] [µM] | IC50 [5] [µM] | IC50 [6] [µM] | SMILES
≤ 10 | ≤ 10 | ≤ 10 | ≤ 10 |  |  | COc1ccnc2[nH]cc(C(=O)c3c(F)ccc(NS(C)(=O)=O)c3F)c12 [P-2293, N-[2,4-Difluoro-3-(4-methoxy-1H-pyrrolo[2,3-b]pyridine-3-carbonyl)-phenyl]-methanesulfonamide]
≤ 10 | ≤ 10 |  | ≤ 10 | ≤ 10 |  | CCCS(=O)(=O)Nc1ccc(F)c(C(=O)c2c[nH]c3ncc(-c4ccc(S(=O)(=O)N5CCCC5)cc4)cc23)c1F [P-2227, Propane-1-sulfonic acid (2,4-difluoro-3-{5-[4-(pyrrolidine-1-sulfonyl)-phenyl]-1H-pyrrolo[2,3-b]pyridine-3-carbonyl}-phenyl)-amide]
≤ 10 | ≤ 10 |  |  |  | ≤ 10 | CCCS(=O)(=O)Nc1ccc(F)c(C(=O)c2c[nH]c3ncc(-c4c(C)noc4C)cc23)c1F [P-2156, Propane-1-sulfonic acid {3-[5-(3,5-dimethyl-isoxazol-4-yl)-1H-pyrrolo[2,3-b]pyridine-3-carbonyl]-2,4-difluoro-phenyl}-amide]
≤ 10 | ≤ 10 |  |  | ≤ 10 | ≤ 10 | CCCS(=O)(=O)Nc1ccc(F)c(C(=O)c2c[nH]c3ncc(-c4ccc(Cl)c(C(F)(F)F)c4)cc23)c1F [P-2171, Propane-1-sulfonic acid {3-[5-(4-chloro-3-trifluoromethyl-phenyl)-1H-pyrrolo[2,3-b]pyridine-3-carbonyl]-2,4-difluoro-phenyl}-amide]
≤ 10 | ≤ 10 |  | ≤ 10 | ≤ 10 |  | COc1ncc(-c2cnc3[nH]cc(C(=O)c4cccc(NS(=O)(=O)N5CCCC5)c4F)c3c2)cn1 [P-2422, Pyrrolidine-1-sulfonic acid {2-fluoro-3-[5-(2-methoxy-pyrimidin-5-yl)-1H-pyrrolo[2,3-b]pyridine-3-carbonyl]-phenyl}-amide]
≤ 10 |  | ≤ 10 |  |  |  | CN(C)S(=O)(=O)Nc1cccc(C(=O)c2c[nH]c3ncc(C#N)cc23)c1F [P-2419, N,N-dimethylamino-sulfonic acid [3-(5-cyano-1H-pyrrolo[2,3-b]pyridine-3-carbonyl)-2-fluoro-phenyl]-amide]
≤ 10 |  |  | ≤ 10 | ≤ 10 | ≤ 10 | COc1ccnc2[nH]cc(C(=O)c3c(F)ccc(NS(=O)(=O)c4cccnc4)c3F)c12 [P-2073, Pyridine-3-sulfonic acid [2,4-difluoro-3-(4-methoxy-1H-pyrrolo[2,3-b]pyridine-3-carbonyl)-phenyl]-amide]
≤ 10 | ≤ 10 |  | ≤ 10 | ≤ 10 |  | CCCS(=O)(=O)Nc1cccc(C(=O)c2c[nH]c3ncc(C)cc23)c1F [P-2403, Propane-1-sulfonic acid [2-fluoro-3-(5-methyl-1H-pyrrolo[2,3-b]pyridine-3-carbonyl)-phenyl]-amide]
≤ 10 | ≤ 10 |  | ≤ 10 | ≤ 10 | ≤ 10 | COc1ccnc2[nH]cc(C(=O)c3c(F)ccc(NS(=O)(=O)C(C)C)c3F)c12 [P-2280, Propane-2-sulfonic acid [2,4-difluoro-3-(4-methoxy-1H-pyrrolo[2,3-b]pyridine-3-carbonyl)-phenyl]-amide]
